We go through 21 molecules from US11840497B2, “4-(p-quinonyl)-2-hydroxybutanamide derivatives for treatment of mitochondrial diseases” (PTC Therapeutics, Inc., priority 2007, dated 2023).

Common to all, as to format: cell-based
For test [1], the system named is Human dermal fibroblasts from Friedreich's Ataxia patients. The test can be described thus: Rescue of BSO-stressed FRDA fibroblasts (Example A). The note with it: FRDA fibroblasts GM04078, 1 mM BSO, read-out: protection against FRDA, EC50. The procedure: Test samples, 4 reference compounds (idebenone, decylubiquinone, Trolox and α-tocopherol acetate), and solvent controls were tested for their ability to rescue FRDA fibroblasts stressed by addition of L-buthionine (S,R)-sulfoximine (BSO), as described in Jauslin et al., Hum. Mol. Genet. […] Mol. Genet. […] This specific BSO-mediated cell death can be prevented by administration of antioxidants or molecules involved in the antioxidant pathway, such as α-tocopherol, selenium, or small molecule glutathione peroxidase mimetics. However, antioxidants differ in their potency, i.e. the concentration at which they are able to rescue BSO-stressed FRDA fibroblasts.
Fetal Calf Serum was obtained from PAA Laboratories. Basic fibroblast growth factor and epidermal growth factor were purchased from PeproTech. Penicillin-streptomycin-glutamine mix, L-buthionine (S,R)-sulfoximine, (+)-α-tocopherol acetate, decylubiquinone, and insulin from bovine pancreas were purchased from Sigma. Trolox (6-Hydroxy-2,5,7,8-tetramethylchroman-2-carboxylic acid) was obtained from Fluka. Idebenone was obtained from Chemo Iberica. Calcein AM was purchased from Molecular Probes. Cell culture medium was made by combining 125 ml M199 EBS, 50 ml Fetal Calf Serum, 100 U/ml penicillin, 100 μg/ml streptomycin, 2 mM glutamine, 10 μg/ml insulin, 10 ng/ml EGF, and 10 ng/ml bFGF; MEM EBS was added to make the volume up to 500 ml. […] During the course of the experiments, this solution was stored at +4° C. The cells were obtained from the Coriell Cell Repositories (Camden, NJ; repository number GM04078) and grown in 10 cm tissue culture plates. Every third day, they were split at a 1:3 ratio.
The test samples were supplied in 1.5 ml glass vials. […] Once dissolved, they were stored at −20° C. Reference antioxidants (idebenone, decylubiquinone, α-tocopherol acetate and trolox) were dissolved in DMSO.
Test samples were screened according to the following protocol: A culture with FRDA fibroblasts was started from a 1 ml vial with approximately 500,000 cells stored in liquid nitrogen. […] Once confluent, fibroblasts were harvested. […] The remaining cells were distributed in 10 cm cell culture plates (500,000 cells/plate) for propagation. The plates were incubated overnight at 37° C. in a atmosphere with 95% humidity and 5% CO2 to allow attachment of the cells to the culture plate.
MTP medium (243 μl) was added to a well of the microtiter plate. […] Serial dilutions from the master solution were made. The period between the single dilution steps was kept as short as possible (generally less than 1 second).
Plates were kept overnight in the cell culture incubator. The next day, 10 μl of a 10 mM BSO solution were added to the wells, resulting in a 1 mM final BSO concentration. Forty-eight hours later, three plates were examined under a phase-contrast microscope to verify that the cells in the 0% control (wells E1-H1) were clearly dead. The medium from all plates was discarded, and the remaining liquid was removed by gently tapping the plate inversed onto a paper towel.
The plates were incubated for 50-70 minutes at room temperature. After that time the PBS was discarded, the plate gently tapped on a paper towel and fluorescence (excitation/emission wavelengths of 485 nm and 525 nm, respectively) was read on a Gemini fluorescence reader. Data was imported into Microsoft Excel (EXCEL is a registered trademark of Microsoft Corporation for a spreadsheet program) and used to calculate the EC50 concentration for each compound.
The compounds were tested three times, i.e., the experiment was performed three times, the passage number of the cells increasing by one with every repetition.
The viability of non-BSO treated fibroblasts was set as 100%, and the viability of the BSO- and compound-treated cells was calculated as relative to this value.

Test [2] concerns human dermal fibroblasts from CoQ10 deficient patients. Nature of the test: Rescue of stressed fibroblasts from CoQ10 deficient patients (Example E). The note with it: Fibroblast, fibroblasts harboring a CoQ2 mutation, screen similar to Example A, read-out: protection against CoQ10 deficiency, EC50. As to the method:
Compounds of the invention were tested using a screen similar to the one described in Example A, but substituting FRDA cells with cells obtained from CoQ10 deficient patients harboring a CoQ2 mutation.

Test [3] relates to human dermal fibroblasts from LHON patients. Nature of the test: Rescue of BSO-stressed fibroblasts from LHON patients (Example C). The note with it: Fibroblast, LHON fibroblasts GM03858, screen as Example A, read-out: protection against LHON, EC50. As to the method: The compounds were tested for their ability to rescue human dermal fibroblasts from LHON patients from oxidative stress.

The test system of test [4] is human dermal fibroblasts from Huntington's patients. The test can be described thus: Rescue of BSO-stressed fibroblasts from Huntington's patients (Example B). The note with it: Fibroblast, Huntington's fibroblasts GM 04281, screen as Example A, read-out: protection against Hungtington's, EC50. The procedure:
The compounds were tested for their ability to rescue human dermal fibroblasts from Huntington's patients from oxidative stress.

By EC50 is commonly meant the concentration at which the effect is half-maximal.

Some results are limits rather than exact numbers.

For the molecule `CC1=C(C)C(=O)C(CCC(C)(O)C(=O)N2CCNCC2)=C(C)C1=O` (stereo not shown) [2-(3-hydroxy-3-methyl-4-oxo-4-(piperazin-1-yl)butyl)-3,5,6-trimethylcyclohexa-2,5-diene-1,4-dione], the EC50 in test [1] and in test [2] was less than 100 nM in each case.

As for `CC(=O)N1CCN(C(=O)C(C)(O)CCC2=C(C)C(=O)C(C)=C(C)C2=O)CC1` (stereo not shown) [2-(4-(4-acetylpiperazin-1-yl)-3-hydroxy-3-methyl-4-oxobutyl)-3,5,6-trimethylcyclohexa-2,5-diene-1,4-dione], the EC50 in test [1], in test [3], in test [4] and in test [2] was less than 100 nM in each case.

Regarding `CC1=C(C)C(=O)C(CCC(C)(O)C(=O)NCc2cccnc2)=C(C)C1=O` (stereo not shown) [2-hydroxy-2-methyl-N-(pyridin-3-ylmethyl)-4-(2,4,5-trimethyl-3,6-dioxocyclohexa-1,4-dienyl)butanamide], the EC50 in test [3] and in test [2] was less than 100 nM each time.

With `CC1=C(C)C(=O)C(CC[C@](C)(O)C(N)=O)=C(C)C1=O` [(S)-2-hydroxy-2-methyl-4-(2,4,5-trimethyl-3,6-dioxocyclohexa-1,4-dienyl)butanamide], the EC50 in test [1], in test [3], in test [4] and in test [2] was less than 100 nM in each case.

Consider `CC1=C(C)C(=O)C(CCC(C)(O)C(=O)NCCCO)=C(C)C1=O` (stereo not shown) [Example 9, 2-Hydroxy-N-(3-hydroxypropyl)-2-methyl-4-(2,4,5-trimethyl-3,6-dioxocyclohexa-1,4-dienyl)butanamide], for which the EC50 in test [1], in test [3] and in test [4] was less than 100 nM in each case.

Consider `CC1=C(C)C(=O)C(CCC(C)(O)C(N)=O)=C(C)C1=O` (stereo not shown) [Example 16, 2-Hydroxy-2-methyl-4-(2,4,5-trimethyl-3,6-dioxocyclohexa-1,4-dienyl)butanamide], for which the EC50 in test [1], in test [3], in test [4] and in test [2] was less than 100 nM throughout.

As for `CC1=C(C)C(=O)C(CCC(C)(O)C(=O)NCCCCO)=C(C)C1=O` (stereo not shown) [Example 17, 2-Hydroxy-N-(4-hydroxybutyl)-2-methyl-4-(2,4,5-trimethyl-3,6-dioxocyclohexa-1,4-dienyl)butanamide], the EC50 in test [1], in test [3] and in test [4] was less than 100 nM each time.

As for `CC1=C(C)C(=O)C(CCC(C)(O)C(=O)NC(C)CO)=C(C)C1=O` (stereo not shown) [Example 19, 2-Hydroxy-N-(1-hydroxypropan-2-yl)-2-methyl-4-(2,4,5-trimethyl-3,6-dioxocyclohexa-1,4-dienyl)butanamide], the EC50 in test [1], in test [3] and in test [4] was less than 100 nM each time.

For `CCCCCCNC(=O)C(C)(O)CCC1=C(C)C(=O)C(C)=C(C)C1=O` (stereo not shown) [Example 43, N-hexyl-2-hydroxy-2-methyl-4-(2,4,5-trimethyl-3,6-dioxocyclohexa-1,4-dienyl)butanamide], the EC50 in test [3] and in test [2] was less than 100 nM throughout.

Regarding `CC1=C(C)C(=O)C(CCC(C)(O)C(=O)NCc2ccccc2Cl)=C(C)C1=O` (stereo not shown) [N-(2-chlorobenzyl)-2-hydroxy-2-methyl-4-(2,4,5-trimethyl-3,6-dioxocyclohexa-1,4-dienyl)butanamide], the EC50 in test [1], in test [3] and in test [4] was less than 100 nM each time.

For the molecule `CC1=C(C)C(=O)C(CCC(C)(O)C(=O)NCCc2ccccc2Cl)=C(C)C1=O` (stereo not shown) [N-(2-chlorophenethyl)-2-hydroxy-2-methyl-4-(2,4,5-trimethyl-3,6-dioxocyclohexa-1,4-dienyl)butanamide], the EC50 in test [1] and in test [2] was less than 100 nM throughout.

With `CC1=C(C)C(=O)C(CCC(C)(O)C(=O)NCc2ccccc2F)=C(C)C1=O` (stereo not shown) [N-(2-fluorobenzyl)-2-hydroxy-2-methyl-4-(2,4,5-trimethyl-3,6-dioxocyclohexa-1,4-dienyl)butanamide], the EC50 in test [1], in test [3] and in test [4] was less than 100 nM throughout.

`CC1=C(C)C(=O)C(CCC(C)(O)C(=O)NCc2cccc(Cl)c2)=C(C)C1=O` (stereo not shown) [N-(3-chlorobenzyl)-2-hydroxy-2-methyl-4-(2,4,5-trimethyl-3,6-dioxocyclohexa-1,4-dienyl)butanamide]: the EC50 in test [1], in test [3] and in test [4] was less than 100 nM in each case.

As to `CC1=C(C)C(=O)C(CCC(C)(O)C(=O)NCCc2cccc(Cl)c2)=C(C)C1=O` (stereo not shown) [N-(3-chlorophenethyl)-2-hydroxy-2-methyl-4-(2,4,5-trimethyl-3,6-dioxocyclohexa-1,4-dienyl)butanamide], the half-maximal effective concentration (EC50) in test [1], in test [3] and in test [4] was less than 100 nM throughout.

On to `CC1=C(C)C(=O)C(CCC(C)(O)C(=O)NCc2cccc(F)c2)=C(C)C1=O` (stereo not shown) [N-(3-fluorobenzyl)-2-hydroxy-2-methyl-4-(2,4,5-trimethyl-3,6-dioxocyclohexa-1,4-dienyl)butanamide], for which the EC50 in test [1], in test [3] and in test [4] was less than 100 nM in each case.

As to `CC1=C(C)C(=O)C(CCC(C)(O)C(=O)NCc2ccc(Cl)cc2)=C(C)C1=O` (stereo not shown) [N-(4-chlorobenzyl)-2-hydroxy-2-methyl-4-(2,4,5-trimethyl-3,6-dioxocyclohexa-1,4-dienyl)butanamide], the EC50 in test [1], in test [3] and in test [4] was less than 100 nM in each case.

With `CC1=C(C)C(=O)C(CCC(C)(O)C(=O)NCCc2ccc(Cl)cc2)=C(C)C1=O` (stereo not shown) [N-(4-chlorophenethyl)-2-hydroxy-2-methyl-4-(2,4,5-trimethyl-3,6-dioxocyclohexa-1,4-dienyl)butanamide], the EC50 in test [1], in test [3], in test [4] and in test [2] was less than 100 nM in each case.

Turning to `CC1=C(C)C(=O)C(CCC(C)(O)C(=O)Nc2ccc(Cl)cc2)=C(C)C1=O` (stereo not shown) [N-(4-chlorophenyl)-2-hydroxy-2-methyl-4-(2,4,5-trimethyl-3,6-dioxocyclohexa-1,4-dienyl)butanamide], the EC50 in test [1], in test [3] and in test [4] was less than 100 nM in each case.

On to `CC1=C(C)C(=O)C(CCC(C)(O)C(=O)NCc2ccc(F)cc2)=C(C)C1=O` (stereo not shown) [N-(4-fluorobenzyl)-2-hydroxy-2-methyl-4-(2,4,5-trimethyl-3,6-dioxocyclohexa-1,4-dienyl)butanamide], for which the half-maximal effective concentration (EC50) in test [1], in test [3] and in test [4] was less than 100 nM each time.

Regarding `CC1=C(C)C(=O)C(CCC(C)(O)C(=O)NCCc2ccc(F)cc2)=C(C)C1=O` (stereo not shown) [N-(4-fluorophenethyl)-2-hydroxy-2-methyl-4-(2,4,5-trimethyl-3,6-dioxocyclohexa-1,4-dienyl)butanamide], the EC50 in test [1], in test [3] and in test [4] was less than 100 nM each time.

For `CC1=C(C)C(=O)C(CCC(C)(O)C(=O)N2CCN(C(=O)OC(C)(C)C)CC2)=C(C)C1=O` (stereo not shown) [tert-butyl 4-(2-hydroxy-2-methyl-4-(2,4,5-trimethyl-3,6-dioxocyclohexa-1,4-dienyl)butanoyl)piperazine-1-carboxylate], the EC50 in test [2] was less than 100 nM.
